Measured values published in patent US8247211B2, “Glycopeptide antibiotics” (American Cyanamid Company, priority 2001, dated 2012).

How the values were obtained:
Test in all cases: In vitro antibacterial evaluation: minimum inhibitory concentration (MIC), broth dilution method
Assay type in all cases: cell-based
Staphylococcus sp. = settings: for MIC Staphylococcus aureus (ATCC 29213): strain ATCC 29213; for MIC Staphylococcus aureus (GC 1131): strain GC 1131; for MIC Staphylococcus aureus (GC 3051): strain GC 3051; for MIC Staphylococcus aureus (GC 3053): strain GC 3053; for MIC Staphylococcus aureus (GC 4541): strain GC 4541; for MIC Staphylococcus aureus (GC 4542): strain GC 4542; for MIC Staphylococcus aureus-SMITH (GC 4543): strain GC 4543; for MIC Staphylococcus aureus (GC 4544): strain GC 4544; for MIC Staphylococcus aureus (GC 4545): strain GC 4545; for MIC Staphylococcus haemolyticus (GC 4546): strain GC 4546; for MIC Coagulase Negative Staphylococcus (GC 4547): strain GC 4547; for MIC Coagulase Negative Staphylococcus (GC 4548): strain GC 4548; for MIC Coagulase Negative Staphylococcus (GC 4549): strain GC 4549; for MIC Coagulase Negative Staphylococcus (GC 4551): strain GC 4551
Method in brief: (§1)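 Following NCCLS approved standard M7-A2, compounds are serially diluted from 64 to 0.06 μg/mL in Muller-Hinton II […] and inoculated at 5×10^5 CFU/mL; the MIC is the minimum concentration at which growth is inhibited.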

Enterococcus sp. = settings: 18 hours at 35° C.
Method in brief: as §1

Escherichia coli = settings: 18 hours at 35° C.
Method in brief: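 Test strains, among them recent clinical isolates carrying methicillin, penicillin and/or vancomycin resistance, were inoculated at 5×10^5 CFU/mL. A broth dilution series spanning 64-0.06 μg/mL in Muller-Hinton II […] (NCCLS M7-A2) defined the MIC as the lowest growth-inhibiting concentration.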

Streptococcus sp. = settings: 18 hours at 35° C.
Method in brief: as §1

[1] = Enterococcus faecalis (ATCC 29212)
[2] = Enterococcus faecalis (GC 2242)
[3] = Enterococcus faecalis (GC 2691)
[4] = Enterococcus faecalis (GC 3059)
[5] = Enterococcus faecalis (GC 4552)
[6] = Enterococcus faecalis (GC 4553)
[7] = Enterococcus faecalis (GC 4554)
[8] = Enterococcus faecalis (GC 6189)
[9] = broth dilution, inoculum 5×10^5 CFU/mL
[10] = Streptococcus agalactiae (GC 4564)
[11] = Streptococcus pneumoniae (ATCC 6301)
[12] = Streptococcus pneumoniae (GC 1894)
[13] = Streptococcus pneumoniae (GC 4565)
[14] = Streptococcus pyogenes (GC 4563)

Cc1ccc(Oc2cccc(C3OCC4OC(OC5C(CO)OC(Oc6ccc(CC7NC(=O)C(C(C)c8ccccc8)NC(=O)CNC(=O)C(CO)NC(=O)C(C(O)C8CNC(=N)N8C8OC(CO)C(O)C(O)C8O)NC(=O)C(C(O)C8CNC(=N)N8)NC7=O)cc6I)C(O)C5O)C(O)C(O)C4O3)c2)cc1 (centres unmarked) [Example 197]
16 mg/L: MIC Staphylococcus aureus (GC 1131) (Staphylococcus sp.) | MIC Staphylococcus aureus (GC 4541) (Staphylococcus sp.) | MIC Staphylococcus aureus-SMITH (GC 4543) (Staphylococcus sp.) | MIC Coagulase Negative Staphylococcus (GC 4551) (Staphylococcus sp.) | MIC Enterococcus avium (GC 4558) (Enterococcus sp.; Enterococcus avium (GC 4558)) | MIC Enterococcus avium (GC 4558) (Enterococcus sp.; [9]) | MIC Escherichia coli (GC 4560) (Escherichia coli) | MIC Streptococcus agalactiae (GC 4564) (Streptococcus sp.; [10]) | MIC Streptococcus pyogenes (GC 4563) (Streptococcus sp.; [14]) | MIC Streptococcus agalactiae (GC 4564) (Streptococcus sp.; [9]) | MIC Streptococcus pyogenes (GC 4563) (Streptococcus sp.; [9])
>64 mg/L: MIC Enterococcus faecalis (ATCC 29212) (Enterococcus sp.; [1]) | MIC Enterococcus faecalis (GC 2242) (Enterococcus sp.; [2]) | MIC Enterococcus faecalis (GC 2691) (Enterococcus sp.; [3]) | MIC Enterococcus faecalis (GC 3059) (Enterococcus sp.; [4]) | MIC Enterococcus faecalis (GC 4552) (Enterococcus sp.; [5]) | MIC Enterococcus faecalis (GC 4554) (Enterococcus sp.; [7]) | MIC Enterococcus faecium (GC 4556) (Enterococcus sp.; Enterococcus faecium (GC 4556)) | MIC Enterococcus faecalis (ATCC 29212) (Enterococcus sp.; [9]) | MIC Enterococcus faecalis (GC 2242) (Enterococcus sp.; [9]) | MIC Enterococcus faecalis (GC 2691) (Enterococcus sp.; [9]) | MIC Enterococcus faecalis (GC 3059) (Enterococcus sp.; [9]) | MIC Enterococcus faecalis (GC 4552) (Enterococcus sp.; [9]) | MIC Enterococcus faecalis (GC 4554) (Enterococcus sp.; [9]) | MIC Enterococcus faecium (GC 4556) (Enterococcus sp.; [9])
4 mg/L: MIC Coagulase Negative Staphylococcus (GC 6257) (Staphylococcus sp.; strain GC 6257) | MIC Streptococcus pneumoniae (ATCC 6301) (Streptococcus sp.; [11]) | MIC Streptococcus pneumoniae (ATCC 6301) (Streptococcus sp.; [9])
32 mg/L: MIC Staphylococcus aureus (ATCC 29213) (Staphylococcus sp.) | MIC Staphylococcus aureus (GC 4544) (Staphylococcus sp.) | MIC Staphylococcus aureus (GC 4545) (Staphylococcus sp.) | MIC Staphylococcus haemolyticus (GC 4546) (Staphylococcus sp.) | MIC Coagulase Negative Staphylococcus (GC 4547) (Staphylococcus sp.) | MIC Escherichia coli (ATCC 25922) (Escherichia coli; Escherichia coli (ATCC 25922))
64 mg/L: MIC Staphylococcus aureus (GC 3051) (Staphylococcus sp.) | MIC Staphylococcus aureus (GC 3053) (Staphylococcus sp.) | MIC Staphylococcus aureus (GC 4542) (Staphylococcus sp.) | MIC Enterococcus faecalis (GC 4553) (Enterococcus sp.; [6]) | MIC Enterococcus faecalis (GC 6189) (Enterococcus sp.; [8]) | MIC Enterococcus faecium (GC 2243) (Enterococcus sp.; Enterococcus faecium (GC 2243)) | MIC Enterococcus faecalis (GC 4553) (Enterococcus sp.; [9]) | MIC Enterococcus faecalis (GC 6189) (Enterococcus sp.; [9]) | MIC Enterococcus faecium (GC 2243) (Enterococcus sp.; [9]) | MIC Escherichia coli (GC 4559) (Escherichia coli; Escherichia coli (GC 4559))
8 mg/L: MIC Coagulase Negative Staphylococcus (GC 4548) (Staphylococcus sp.) | MIC Coagulase Negative Staphylococcus (GC 4549) (Staphylococcus sp.) | MIC Enterococcus faecium (GC 4557) (Enterococcus sp.; Enterococcus faecium (GC 4557)) | MIC Enterococcus faecium (GC 4557) (Enterococcus sp.; [9]) | MIC Streptococcus pneumoniae (GC 1894) (Streptococcus sp.; [12]) | MIC Streptococcus pneumoniae (GC 4565) (Streptococcus sp.; [13]) | MIC Streptococcus pneumoniae (GC 1894) (Streptococcus sp.; [9]) | MIC Streptococcus pneumoniae (GC 4565) (Streptococcus sp.; [9])

CC(c1ccccc1)C1NC(=O)CNC(=O)C(CO)NC(=O)C(C(O)C2CNC(=N)N2C2OC(CO)C(O)C(O)C2O)NC(=O)C(C(O)C2CNC(=N)N2)NC(=O)C(Cc2ccc(OC3OC(CO)C(OC4OC5COC6(CCCCC6C)OC5C(O)C4O)C(O)C3O)cc2)NC1=O (stereo not drawn) [Example 204, Cyclo[glycyl-β-methylphenylalanyl-O-[4-O-[4,6-O-(2-methylcyclohexylidene)hexopyranosyl]hexopyranosyl]tyrosyl-3-(2-iminoimidazolidin-4-yl)seryl-3-(3-hexopyranosyl-2-iminoimidazolidin-4-yl)serylseryl]]
8 mg/L: MIC Staphylococcus aureus (GC 1131) (Staphylococcus sp.) | MIC Staphylococcus aureus (GC 3053) (Staphylococcus sp.) | MIC Staphylococcus aureus (GC 4544) (Staphylococcus sp.) | MIC Enterococcus faecium (GC 4557) (Enterococcus sp.; Enterococcus faecium (GC 4557)) | MIC Enterococcus faecium (GC 4557) (Enterococcus sp.; [9])
2 mg/L: MIC Staphylococcus haemolyticus (GC 4546) (Staphylococcus sp.) | MIC Coagulase Negative Staphylococcus (GC 4549) (Staphylococcus sp.)
0.25 mg/L: MIC Streptococcus pneumoniae (GC 1894) (Streptococcus sp.; [12]) | MIC Streptococcus pneumoniae (GC 1894) (Streptococcus sp.; [9])
16 mg/L: MIC Enterococcus avium (GC 4558) (Enterococcus sp.; Enterococcus avium (GC 4558)) | MIC Enterococcus faecalis (ATCC 29212) (Enterococcus sp.; [1]) | MIC Enterococcus faecalis (GC 2242) (Enterococcus sp.; [2]) | MIC Enterococcus faecalis (GC 2691) (Enterococcus sp.; [3]) | MIC Enterococcus faecalis (GC 3059) (Enterococcus sp.; [4]) | MIC Enterococcus faecalis (GC 4552) (Enterococcus sp.; [5]) | MIC Enterococcus faecalis (GC 4553) (Enterococcus sp.; [6]) | MIC Enterococcus faecalis (GC 4554) (Enterococcus sp.; [7]) | MIC Enterococcus faecalis (GC 6189) (Enterococcus sp.; [8]) | MIC Enterococcus faecium (GC 2243) (Enterococcus sp.; Enterococcus faecium (GC 2243)) | MIC Enterococcus faecium (GC 4556) (Enterococcus sp.; Enterococcus faecium (GC 4556)) | MIC Enterococcus avium (GC 4558) (Enterococcus sp.; [9]) | MIC Enterococcus faecalis (ATCC 29212) (Enterococcus sp.; [9]) | MIC Enterococcus faecalis (GC 2242) (Enterococcus sp.; [9]) | MIC Enterococcus faecalis (GC 2691) (Enterococcus sp.; [9]) | MIC Enterococcus faecalis (GC 3059) (Enterococcus sp.; [9]) | MIC Enterococcus faecalis (GC 4552) (Enterococcus sp.; [9]) | MIC Enterococcus faecalis (GC 4553) (Enterococcus sp.; [9]) | MIC Enterococcus faecalis (GC 4554) (Enterococcus sp.; [9]) | MIC Enterococcus faecalis (GC 6189) (Enterococcus sp.; [9]) | MIC Enterococcus faecium (GC 2243) (Enterococcus sp.; [9]) | MIC Enterococcus faecium (GC 4556) (Enterococcus sp.; [9])
4 mg/L: MIC Staphylococcus aureus (ATCC 29213) (Staphylococcus sp.) | MIC Staphylococcus aureus (GC 3051) (Staphylococcus sp.) | MIC Staphylococcus aureus (GC 4541) (Staphylococcus sp.) | MIC Staphylococcus aureus (GC 4542) (Staphylococcus sp.) | MIC Staphylococcus aureus-SMITH (GC 4543) (Staphylococcus sp.) | MIC Staphylococcus aureus (GC 4545) (Staphylococcus sp.) | MIC Coagulase Negative Staphylococcus (GC 4547) (Staphylococcus sp.) | MIC Coagulase Negative Staphylococcus (GC 4548) (Staphylococcus sp.) | MIC Coagulase Negative Staphylococcus (GC 4551) (Staphylococcus sp.) | MIC Escherichia coli (GC 4560) (Escherichia coli)
0.5 mg/L: MIC Streptococcus pneumoniae (ATCC 6301) (Streptococcus sp.; [11]) | MIC Streptococcus pneumoniae (GC 4565) (Streptococcus sp.; [13]) | MIC Streptococcus pyogenes (GC 4563) (Streptococcus sp.; [14]) | MIC Streptococcus pneumoniae (ATCC 6301) (Streptococcus sp.; [9]) | MIC Streptococcus pneumoniae (GC 4565) (Streptococcus sp.; [9]) | MIC Streptococcus pyogenes (GC 4563) (Streptococcus sp.; [9])
1 mg/L: MIC Streptococcus agalactiae (GC 4564) (Streptococcus sp.; [10]) | MIC Streptococcus agalactiae (GC 4564) (Streptococcus sp.; [9])
